Experimental data taken from patent US12279617B2, “Agricultural and horticultural chemical agent containing new imidazopyridine-2-carboxamide derivative as active ingredient” (AGRO-KANESHO CO., LTD., priority 2019, dated 2025).

Key:
Assay type in all cases: in vivo
[1] = system: Spodoptera litura (Fabricius); assay: Larvicide test for Spodoptera litura (Fabricius); details: 500 ppm emulsion agent; artificial feed immersed about 60 seconds; 7 days after insect release; 25° C.; agony insects counted as dead
From the text: A water diluted solution of an emulsion agent (500 ppm) prepared as in Formulation Example 1 was put in a 120-mL polyethylene cup, and artificial feed Insecta LF (Nosan Corporation, diameter: 5 cm) sliced into 5 mm thickness and cut into ¼ was immersed in the polyethylene cup for about 60 seconds. After the immersion treatment, the resultant artificial feed piece was put in another 120-mL polyethylene cup (diameter: 8 cm, height: 4 cm) with filter paper (diameter: 55 mm) on the bottom together with test insects, and the cup was covered with a lid and was then kept in a thermostat chamber of 25° C. Seven days after the insect release, the life-and-death and the agony of the larvae were investigated, and the insecticidal rate (%) when agony insects were included in dead insects was determined. Incidentally, the test was carried out by using one cup in each ward. Insecticidal rate (%)=[number of dead larvae)/(number of test larvae)]×100

[2] = system: Plutella xylostella; assay: Insecticidal effect test for Plutella xylostella of Chinese cabbage; details: 500 ppm emulsion agent sprayed on Chinese cabbage seedlings; 3rd instar larvae; 5 days after insect release; 25° C.; agony insects counted as dead
Method: A sufficient amount of a water diluted solution of an emulsion agent (500 ppm) prepared as in Formulation Example 1 was sprayed with an air brush to the leaves of Chinese cabbage seedlings planted in pots raised for 2 weeks after sowing. The liquid agent was air dried, and five 3rd instar larvae of Plutella xylostella were then inoculated per pot and were kept in a thermostat chamber of 25° C. Five days after the insect release, the life-and-death and the agony of the larvae were investigated, and the insecticidal rate (%) when agony insects were included in dead insects was determined. Incidentally, the test was carried out by using one seedling in each ward. Insecticidal rate (%)=[number of dead larvae)/(number of test larvae)]×100

[3] = system: Aculops lycopersici Massee; assay: Adult-killing test for Aculops lycopersici Massee (tomato rust mites); details: 500 ppm emulsion agent sprayed 2.0 mL per cup on tomato leaf disks; 3 days after treatment; 25° C.; scored on four scales (100, 80, 50, 0)
From the text: A lid provided with a hole (diameter: about 5 mm) at the center was put on a 430-mL polyethylene cup containing water. Circular filter paper with a diameter of 6.5 cm which was cut such that a strip-shaped filter paper piece having a width of about 5 mm was formed was put on the lid, and the filter paper piece was inserted into the hole of the lid so that the tip of the piece extends downward from the hole and immersed in the water in the cup. Furthermore, absorbent cotton was put on the filter paper such that the water in the cup was always supplied to the absorbent cotton. Three leaf disks (1 cm×1 cm) of leaflets of tomato in the early stage of true leaf development were put on the absorbent cotton such that the back of the leaves in the disk form was on top, and small pieces of a leaf parasitized by tomato rust mites were inoculated on the leaves in the disk form. After 24 hours from the inoculation, the small pieces were removed, and the cup was placed in an acrylic cylinder having a height of 50 cm and a diameter of 10 cm. A water diluted solution of an emulsion agent (500 ppm) prepared as in Formulation Example 1 was sprayed in an amount of 2.0 mL per cup using an air brush. After the spraying, the cup was kept in a thermostat chamber of 25° C. Three days after the treatment, the control rate was evaluated on four scales: 100 (control rate: 100%), 80 (control rate: 99% to 80%), 50 (control rate: 79% to 50%), and 0 (control rate: less than 50%), and the next-generation density suppression rate was calculated based on the results by the following equation. Incidentally, the test was carried out by using one cup in each ward. Control rate=(A×100+B×80+C×50)/(A+B+C+D) A: the number of disks for 100, B: the number for disks of 80, C: the number for disks of 50, D: the number of disks for 0.

| Structure (SMILES) | insecticidal rate [1] [%] | insecticidal rate [2] [%] | control rate [3] [%] |
| --- | --- | --- | --- |
| CCSc1c(C(=O)N(COC)c2ccc(C(F)(F)F)cc2)nc2ccc(C(F)(F)F)cn12 [A-13, N-(methoxymethyl)-N-{4-(trifluoromethyl)phenyl}-3-(ethylthio)-6-(trifluoromethyl)imidazo[1,2-a]pyridine-2-carboxamide] | 100 | 100 | – |
| CC[S+]([O-])c1c(C(=O)N(COC)c2ccc(C(F)(F)F)cc2)nc2ccc(C(F)(F)F)cn12 (stereo not drawn) [A-14, N-(methoxymethyl)-N-{4-(trifluoromethyl)phenyl}-3-(ethylsulfinyl)-6-(trifluoromethyl)imidazo[1,2-a]pyridine-2-carboxamide] | 100 | 100 | 100 |
| CCS(=O)(=O)c1c(C(=O)N(COC)c2ccc(C(F)(F)F)cc2)nc2ccc(C(F)(F)F)cn12 [A-15, N-(methoxymethyl)-N-{4-(trifluoromethyl)phenyl}-3-(ethylsulfonyl)-6-(trifluoromethyl)imidazo[1,2-a]pyridine-2-carboxamide] | 100 | 100 | 100 |
| CCOCN(C(=O)c1nc2cccc(C(F)(F)F)n2c1S(=O)(=O)CC)c1ccc(C(F)(F)F)cc1 [A-18] | 100 | 100 | – |
| CCOCN(C(=O)c1nc2cc(C(F)(F)F)ccn2c1[S+]([O-])CC)c1ccc(C(F)(F)F)cc1 (stereo not drawn) [A-20] | 100 | 100 | – |
| CCOCN(C(=O)c1nc2cc(C(F)(F)F)ccn2c1S(=O)(=O)CC)c1ccc(C(F)(F)F)cc1 [A-21] | 100 | 100 | – |
| CCOCN(C(=O)c1nc2c(C(F)(F)F)cccn2c1SCC)c1ccc(C(F)(F)F)cc1 [A-22] | 100 | 100 | – |
| CCOCN(C(=O)c1nc2ccc(Cl)cn2c1SCC)c1ccc(C(F)(F)F)cc1 [A-25] | 100 | 100 | 100 |
| CCOCN(C(=O)c1nc2ccc(Cl)cn2c1S(=O)(=O)CC)c1ccc(C(F)(F)F)cc1 [A-27] | 100 | 100 | 100 |
| CCOCN(C(=O)c1nc2ccc(C(F)(F)F)cn2c1SCC)c1ccccc1C(F)(F)F [A-31] | – | 100 | – |
| CCOCN(C(=O)c1nc2ccc(C(F)(F)F)cn2c1S(=O)(=O)CC)c1ccccc1C(F)(F)F [A-33] | 100 | 100 | 100 |
| CCOCN(C(=O)c1nc2ccc(C(F)(F)F)cn2c1SCC)c1ccc(SC(F)(F)F)cc1 [A-70] | 100 | 100 | 100 |
| CCOCN(C(=O)c1nc2ccc(C(F)(F)F)cn2c1S(=O)(=O)CC)c1ccc(SC(F)(F)F)cc1 [A-72] | 100 | 100 | 100 |
| CCOCN(C(=O)c1nc2ccc(C(F)(F)F)cn2c1S(=O)(=O)CC)c1ccc([S+]([O-])C(F)(F)F)cc1 (stereo not drawn) [A-75] | 100 | 100 | 100 |
| CCOCN(C(=O)c1nc2ccc(C(F)(F)F)cn2c1SCC)c1ccc(C(F)(F)F)nc1 [A-91] | 100 | 100 | – |
| CCOCN(C(=O)c1nc2ccc(C(F)(F)F)cn2c1S(=O)(=O)CC)c1ccc(C(F)(F)F)cn1 [A-96] | 100 | 100 | 100 |
| CCS(=O)(=O)c1c(C(=O)N(CSC)c2ccc(C(F)(F)F)cc2)nc2ccc(C(F)(F)F)cn12 [A-99] | 100 | 100 | – |
| CCS(=O)(=O)c1c(C(=O)N(CS(C)(=O)=O)c2ccc(C(F)(F)F)cc2)nc2ccc(C(F)(F)F)cn12 [A-102] | 100 | 100 | 100 |
| CCS(=O)(=O)c1c(C(=O)N(C)c2ccc(C(F)(F)F)cc2)nc2ccc(C(F)(F)F)cn12 [Compound A, reference compound] | 90 | 90 | 100 |
| CCOCN(C(=O)Cc1ccncc1S(=O)(=O)CC)c1ccc(C(F)(F)F)cc1 [Compound B, reference compound] | 0 | 50 | 100 |
